{
  "source": "paper PMC7794397",
  "about": "“Curbing gastrointestinal infections by defensin fragment modifications without harming commensal microbiota” (Communications Biology, 2021)",
  "key": {"[1]": {"system": "S. aureus NCTC8325", "assay": "Transmission and scanning electron microscopy", "type": "cell-based", "details": "37.5 µM Pam-3 (4x MIC), 30 min", "from_the_text": "As a control, bacteria were exposed to 0.01% acetic acid. Afterward bacteria were fixed in Karnovsky’s reagent.\nFor transmission electron microscopy (TEM), bacteria were high-pressure frozen (HPF Compact 03, Engineering Office M. Wohlwend GmbH) in capillaries, freeze-substituted (AFS2, Leica Microsystems) with 2% OsO4 and 0.4% uranyl acetate in acetone as substitution medium and embedded in EPON. Ultrathin sections were stained with uranyl acetate and lead citrate and analyzed with a Tecnai Spirit (Thermo Fisher Scientific) operated at 120 kV.\nFor scanning electron microscopy (SEM), bacteria were washed in PBS and finally fixed with 1% OsO4 on ice for 1 h. Next, samples were prepared on polylysin-coated coverslips, dehydrated in a graduated series to 100% ethanol and critical point dried (Polaron) with CO2. Finally, samples were sputter-coated with a 3 nm thick layer of platinum (Safematic CCu-010) and examined with a Hitachi Regulus 8230 field emission scanning electron microscope (Hitachi) at an accelerating voltage of 5 kV."}, "[2]": {"system": "S. Typhimurium", "type": "cell-based", "details": "radial diffusion assay", "method": "(§1) Antimicrobial activity was analyzed by radial diffusion assay. Log-phase bacteria were cultivated for up to 18 h in TSB (TSB, Becton Dickinson, USA), washed and diluted to 4 × 10^6 CFU in 10 ml agar. Bacteria were incubated in 10 ml of 10 mM sodium phosphate, pH 7.4, containing 0.3 mg/ml of TSB powder and 1% (w/v) low EEO-agarose (AppliChem). 1 µg of each lipopeptide was pipetted into punched wells in a final volume of 4 µl and diffused into the gel for 3 h at 37 °C. After that, a nutrient-rich gel with 6% TSB (w/v) and 1% agarose in 10 mM sodium phosphate buffer was poured on top of the first gel and incubated for up to 24 h at 37 °C. Then the diameter of inhibition zones was measured."}, "[3]": {"assay": "Oral tolerance test (safety) in mice", "type": "in vivo, C57BL/6N mice", "details": "for Creatinin / GOT: serum; for Creatinin / GOT / Bodyweight loss: individual animals", "text": "C57BL/6N mice were generated and maintained (including breeding and housing) at the animal facilities of the Helmholtz Centre for Infection Research (HZI) under enhanced specific pathogen-free (SPF) conditions. Animals used in the experiments were gender and age matched. Female and male mice with an age of 8–12 weeks were used. Sterilized food and water ad libitum was provided. Mice were kept under a strict 12-h light cycle (lights on at 7:00 am and off at 7:00 pm) and housed in groups of two to six mice per cage. All mice were euthanized by asphyxiation with CO2 and cervical dislocation. All animal experiments were performed in agreement with the local government of Lower Saxony, Germany (approved permission No. 33.19-42502-04-18/2499).\nAge- and gender-matched mice received two doses of peptides (0, 125 µg or 250 µg) solved in 100 µl PBS orally per day. Bodyweight and appearance were recorded. The following day, mice were sacrificed and stomach, kidney, spleen, liver, small intestine, cecum, and colon were removed for histological scoring. Around 1 ml of blood was taken from the heart to measure inflammatory markers, including creatinine in the kidney and the enzyme levels of glutamate-oxalacetate-transaminase (GOT) in the liver."}, "[4]": {"system": "S. aureus ATCC25923", "assay": "Treatment of established biofilms", "type": "cell-based", "details": "for viable bacteria in biofilm: 24 h old biofilm, 1 h treatment", "method": "Then, planktonic bacteria were removed by two wash steps with PBS. […] Afterward, adherent bacteria in each well were resuspended, and the number of viable bacteria was determined microbiologically. […] The biofilm degradation assay was performed in agreement with the original report describing this method first."}, "[5]": {"system": "P. aeruginosa PAO1", "type": "cell-based", "method": "(§2) After incubation at 37 °C and 150 rpm for 1–120 min, a sample of 50 µl was taken from the suspension and added to 50 µl of a 0.05% (v/v) sodium polyanethol sulfonate (Sigma-Aldrich) solution, which neutralizes remaining peptide activity, and plated on LB agar to determine the number of viable bacteria."}, "[6]": {"system": "S. aureus ATCC25923", "type": "cell-based", "method": "as §2"}, "[7]": {"system": "several pathogenic bacteria", "assay": "Radial diffusion assay, all tested strains", "type": "cell-based", "method": "as §1"}, "[8]": {"details": "histology, animals with signs of pathology/total, treated twice with 250 µg orally, within 24 h"}, "[9]": {"details": "one day after 2 x 125 µg orally, N = 4"}, "[10]": {"details": "one day after 2 x 250 µg orally, N = 6"}},
  "note": "Several values for one entry are separate records, joined by “and”; a condition that tells them apart may be missing. Identical values can stand only once. Residues, ends and D or L forms follow the SMILES beside them. *: point of attachment. Palmitoyl = CCCCCCCCCCCCCCCC(=O)*; AEEA = NCCOCCOCC(=O)O",
  "data": [
    {"smiles": "CCCCCCCCCCCCCCCC(=O)NCCOCCOCC(=O)N[C@@H](CCCNC(=N)N)C(=O)NCC(=O)N[C@@H](CCCCN)C(=O)N[C@@H](C)C(=O)N[C@@H](CCCCN)C(=O)N[C@@H](CS)C(=O)N[C@@H](CS)C(=O)N[C@@H](CCCCN)C(=O)O", "note": "[Pam-3] ({Palmitoyl-AEEA}-RGKAKCCK-OH; C-terminus assumed)", "values": [
      {"measurement": "bacterial morphology, TEM (in words)", "setting": "[1]", "result": "strong cell envelope damage with disrupted membranes and pores in most of the cells"},
      {"measurement": "inhibition of S. Typhimurium growth (in words)", "setting": "[2]", "result": "consistently inhibited"},
      {"measurement": "acute toxicity (in words)", "setting": "[3]; histology and serum markers 24 h after two doses of 250 µg orally", "result": "did not reveal acute toxicity"},
      {"measurement": "Cecum and Colon: Dysplasia", "setting": "[3]; [8]", "result": "0/6"},
      {"measurement": "Cecum and Colon: Inflammation", "setting": "[3]; [8]", "result": "0/6"},
      {"measurement": "Duodenum-Jejunum: Dysplasia", "setting": "[3]; [8]", "result": "0/6"},
      {"measurement": "Duodenum-Jejunum: Inflammation", "setting": "[3]; [8]", "result": "0/6"},
      {"measurement": "Jejunum-Ileum: Dysplasia", "setting": "[3]; [8]", "result": "2/6"},
      {"measurement": "Jejunum-Ileum: Inflammation", "setting": "[3]; [8]", "result": "0/6"},
      {"measurement": "Jejunum-Ileum: Paneth cells", "setting": "[3]; [8]", "result": "0/6"},
      {"measurement": "Kidney: Glomeruli", "setting": "[3]; [8]", "result": "0/6"},
      {"measurement": "Kidney: Papilla", "setting": "[3]; [8]", "result": "0/6"},
      {"measurement": "Kidney: Pelvis", "setting": "[3]; [8]", "result": "0/6"},
      {"measurement": "Kidney: Tubuli", "setting": "[3]; [8]", "result": "3/6"},
      {"measurement": "Liver: Anisocaryosis", "setting": "[3]; [8]", "result": "0/6"},
      {"measurement": "Liver: Double nucleated cells", "setting": "[3]; [8]", "result": "0/6"},
      {"measurement": "Liver: Fatty change", "setting": "[3]; [8]", "result": "0/6"},
      {"measurement": "Liver: Glycogen", "setting": "[3]; [8]", "result": "0/6"},
      {"measurement": "Liver: Hematopoiesis", "setting": "[3]; [8]", "result": "0/6"},
      {"measurement": "Liver: Lymphocytic aggregates", "setting": "[3]; [8]", "result": "0/6"},
      {"measurement": "Stomach: Glycogen", "setting": "[3]; [8]", "result": "0/6"},
      {"measurement": "Stomach: Lymphocytic aggregates", "setting": "[3]; [8]", "result": "0/6"},
      {"measurement": "bodyweight (in words)", "setting": "[3]; oral Pam-3, Fig. 4a", "result": "no alterations in bodyweight"},
      {"measurement": "serum glutamic oxaloacetic transaminase vs PBS (in words)", "setting": "[3]; oral Pam-3, Fig. 4b", "result": "no significant differences"},
      {"measurement": "serum creatinine vs PBS (in words)", "setting": "[3]; oral Pam-3, Fig. 4c", "result": "no significant differences"},
      {"measurement": "Creatinin", "setting": "[3]; [9]", "result": "0.7 mg/dL and 0.3 mg/dL"},
      {"measurement": "GOT", "setting": "[3]; [9]", "result": "56 U/I and 83 U/I and 71 U/I and 622 U/I"},
      {"measurement": "Creatinin", "setting": "[3]; [10]", "result": "0.4 mg/dL and 0.5 mg/dL and 0.3 mg/dL and 0.2 mg/dL and 0.6 mg/dL"},
      {"measurement": "GOT", "setting": "[3]; [10]", "result": "271 U/I and 163 U/I and 240 U/I and 280 U/I and 771 U/I and 499 U/I"},
      {"measurement": "Bodyweight loss", "setting": "[3]; treated twice with 125 µg orally, N = 5", "result": "98.6047% and 99.4355% and 98.663% and 99.2814% and 97.8588%"},
      {"measurement": "Bodyweight loss", "setting": "[3]; treated twice with 250 µg orally, N = 6", "result": "97.5318% and 97.8707% and 99.133% and 99.7222% and 99.016% and 101.461%"},
      {"measurement": "eradication of bacteria in biofilms", "setting": "[4]; 300 µM, within 1 h, Kruskal–Wallis p = 0.0026", "result": "~ 99.99%"},
      {"measurement": "viable bacteria in biofilm", "setting": "[4]; 9.375 µM Pam-3, experiment 1", "result": 43066667, "unit": "CFU/ml"},
      {"measurement": "viable bacteria in biofilm", "setting": "[4]; 9.375 µM Pam-3, experiment 2", "result": 6050000, "unit": "CFU/ml"},
      {"measurement": "viable bacteria in biofilm", "setting": "[4]; 9.375 µM Pam-3, experiment 3", "result": 15666667, "unit": "CFU/ml"},
      {"measurement": "viable bacteria in biofilm", "setting": "[4]; 18.75 µM Pam-3, experiment 1", "result": 32200000, "unit": "CFU/ml"},
      {"measurement": "viable bacteria in biofilm", "setting": "[4]; 18.75 µM Pam-3, experiment 2", "result": 3550000, "unit": "CFU/ml"},
      {"measurement": "viable bacteria in biofilm", "setting": "[4]; 18.75 µM Pam-3, experiment 3", "result": 17250000, "unit": "CFU/ml"},
      {"measurement": "viable bacteria in biofilm", "setting": "[4]; 37.5 µM Pam-3, experiment 1", "result": 27300000, "unit": "CFU/ml"},
      {"measurement": "viable bacteria in biofilm", "setting": "[4]; 37.5 µM Pam-3, experiment 2", "result": 2333333, "unit": "CFU/ml"},
      {"measurement": "viable bacteria in biofilm", "setting": "[4]; 37.5 µM Pam-3, experiment 3", "result": 5966667, "unit": "CFU/ml"},
      {"measurement": "viable bacteria in biofilm", "setting": "[4]; 75 µM Pam-3, experiment 1", "result": 1496667, "unit": "CFU/ml"},
      {"measurement": "viable bacteria in biofilm", "setting": "[4]; 75 µM Pam-3, experiment 2", "result": 239889, "unit": "CFU/ml"},
      {"measurement": "viable bacteria in biofilm", "setting": "[4]; 75 µM Pam-3, experiment 3", "result": 3451667, "unit": "CFU/ml"},
      {"measurement": "viable bacteria in biofilm", "setting": "[4]; 150 µM Pam-3, experiment 1", "result": 150333, "unit": "CFU/ml"},
      {"measurement": "viable bacteria in biofilm", "setting": "[4]; 150 µM Pam-3, experiment 2", "result": 9167, "unit": "CFU/ml"},
      {"measurement": "viable bacteria in biofilm", "setting": "[4]; 150 µM Pam-3, experiment 3", "result": 24500, "unit": "CFU/ml"},
      {"measurement": "viable bacteria in biofilm", "setting": "[4]; 300 µM Pam-3, experiment 1", "result": 67, "unit": "CFU/ml"},
      {"measurement": "viable bacteria in biofilm", "setting": "[4]; 300 µM Pam-3, experiment 2", "result": 333, "unit": "CFU/ml"},
      {"measurement": "viable bacteria in biofilm", "setting": "[4]; 300 µM Pam-3, experiment 3", "result": 1300, "unit": "CFU/ml"},
      {"measurement": "time to eradication to the level of detection", "setting": "[5]; 9.38 µM Pam-3", "result": 2, "unit": "min"},
      {"measurement": "time to killing of more than 90% of bacteria", "setting": "[5]; 9.38 µM Pam-3", "result": "≤ 1", "unit": "min"},
      {"measurement": "MIC", "setting": "[5]; PAO1", "result": 9.38, "unit": "µM"},
      {"measurement": "time to eradication to the level of detection", "setting": "[6]; 9.38 µM Pam-3", "result": 30, "unit": "min"},
      {"measurement": "time to killing of more than 90% of bacteria", "setting": "[6]; 9.38 µM Pam-3", "result": "≤ 15", "unit": "min"},
      {"measurement": "MIC", "setting": "[6]; ATCC25923", "result": 9.38, "unit": "µM"},
      {"measurement": "antimicrobial activity (in words)", "setting": "[7]", "result": "potent inhibition"}
    ]}
  ]
}
